Strand notation (5' to 3'): a small letter for the sugar, then the base; units joined by * are phosphorothioate-linked, units joined directly phosphodiester-linked; [ ] holds rarer units or linkages, { } end groups; capitals alone tell only the bases. e = 2'-O-(2-methoxyethyl) (MOE); k = constrained ethyl (cEt); [5mC] = 5-methylcytosine; d = 2'-deoxy (DNA)
System: human PKK mRNA
Test: Antisense inhibition of human PKK mRNA in HepaRG cells, 1,000 nM, MOE/deoxy/cEt oligonucleotides (Example 3)
Format: cell-based
Description: Additional antisense oligonucleotides were designed targeting a PKK nucleic acid and were tested for their effects on PKK mRNA in vitro.
The chimeric antisense oligonucleotides in the tables below were designed as deoxy, MOE and cEt gapmers. The gapmers are 16 nucleosides in length wherein the nucleoside have either a MOE sugar modification, a cEt sugar modification, or a deoxy modification. The ‘Chemistry’ column describes the sugar modifications of each oligonucleotide. ‘k’ indicates an cEt sugar modification; the number indicates the number of deoxynucleosides; otherwise, indicates a deoxynucleoside; and ‘e’ indicates a 2′-O-methoxyethyl modification. The internucleoside linkages throughout each gapmer are phosphorothioate linkages. All cytosine residues throughout each oligonucleotide are 5-methylcytosines. “Start site” indicates the 5′-most nucleoside to which the gapmer is targeted in the human gene sequence. “Stop site” indicates the 3′-most nucleoside to which the gapmer is targeted in the human gene sequence.
Cultured HepaRG™ cells at a density of 20,000 cells per well were transfected using electroporation with 1,000 nM antisense oligonucleotide. After a treatment period of approximately 24 hours, RNA was isolated from the cells and PKK mRNA levels were measured by quantitative real-time PCR. Human primer probe set RTS3454 was used to measure mRNA levels. ISIS 531231 was also included in this assay. PKK mRNA levels were adjusted according to total RNA content, as measured by RIBOGREEN®. The antisense oligonucleotides were tested in a series of experiments that had similar culture conditions. Results are presented as percent inhibition of PKK, relative to untreated control cells.

[1] = HepaRG cells, 1,000 nM antisense oligonucleotide, Table 29
[2] = HepaRG cells, electroporation with 1,000 nM antisense oligonucleotide, approx. 24 hours, PKK mRNA by RT-PCR (RTS3454), relative to untreated control cells, Table 26 experiment
[3] = HepaRG cells, electroporation with 1,000 nM antisense oligonucleotide, approximately 24 hours, primer probe set RTS3454, relative to untreated control cells, experiment of Table 23
[4] = Table 28, HepaRG cells, 1,000 nM antisense oligonucleotide, human PKK mRNA
[5] = Table 27, HepaRG cells, 1,000 nM antisense oligonucleotide, human PKK mRNA
[6] = Table 19, HepaRG cells, electroporation with 1,000 nM antisense oligonucleotide, approximately 24 hours, PKK mRNA by RT-PCR (RTS3454), relative to untreated control cells
[7] = HepaRG cells, electroporation with 1,000 nM antisense oligonucleotide, approximately 24 hours, primer probe set RTS3454, relative to untreated control cells, experiment of Table 24
[8] = Table 20, HepaRG cells, electroporation with 1,000 nM antisense oligonucleotide, approximately 24 hours, PKK mRNA by RT-PCR (RTS3454), relative to untreated control cells
[9] = Table 22 experiment, HepaRG cells, electroporation with 1,000 nM antisense oligonucleotide, approx. 24 hours, PKK mRNA by RT-PCR (RTS3454), relative to untreated control cells
[10] = Table 30, human PKK mRNA, HepaRG cells, 1,000 nM antisense oligonucleotide
[11] = HepaRG cells, electroporation with 1,000 nM antisense oligonucleotide, approx. 24 hours, PKK mRNA by RT-PCR (RTS3454), relative to untreated control cells, Table 25 experiment
[12] = Table 21 experiment, HepaRG cells, electroporation with 1,000 nM antisense oligonucleotide, approx. 24 hours, PKK mRNA by RT-PCR (RTS3454), relative to untreated control cells

548609 (antisense eG*eA*kT*d[5mC]*dG*dG*dT*dG*dG*dT*dG*dG*dG*kA*kT*eT) [compound 548609]
% inhibition [1]: 30%

548261 (antisense eT*eT*k[5mC]*dA*dG*dG*dG*dA*dG*dT*dG*dA*dT*kG*kT*e[5mC]) [compound 548261]
% inhibition [2]: 36%

547986 (antisense e[5mC]*eA*kG*d[5mC]*dG*dA*dA*dT*d[5mC]*dA*dT*d[5mC]*dT*kT*kT*eG) [compound 547986]
% inhibition [3]: 63%

548489 (antisense eT*eT*k[5mC]*d[5mC]*d[5mC]*d[5mC]*dA*dG*dA*dG*dG*dT*dG*kA*kT*eA) [compound 548489]
% inhibition [4]: 16%

548347 (antisense eG*e[5mC]*kT*dG*dT*dT*d[5mC]*dT*dA*dA*dG*d[5mC]*dG*kA*kG*eA) [compound 548347]
% inhibition [5]: 31%

548090 (antisense e[5mC]*eA*kA*dA*d[5mC]*dT*dA*dA*dG*dG*dG*dA*d[5mC]*k[5mC]*kA*e[5mC]) [compound 548090]
% inhibition [6]: 46%

548018 (e[5mC]*e[5mC]*kA*dA*dG*dA*dA*dG*dA*dG*dT*dT*dT*kG*kT*eT; antisense) [compound 548018]
% inhibition [7]: 22%

548042 (eT*eT*kT*dG*dT*dG*dA*dG*dA*dA*dA*dG*dG*kT*kG*eT; antisense) [compound 548042]
% inhibition [7]: 63%

547855 (antisense eT*eA*kT*d[5mC]*dA*dA*d[5mC]*dT*d[5mC]*d[5mC]*dT*dT*dT*kA*kT*eA) [compound 547855]
% inhibition [8]: 59%
% inhibition [9]: 38%

548404 (eG*eA*kG*d[5mC]*d[5mC]*dT*dT*d[5mC]*d[5mC]*dG*d[5mC]*d[5mC]*dT*k[5mC]*kT*e[5mC]; antisense) [compound 548404]
% inhibition [10]: 37%

548300 (eG*e[5mC]*k[5mC]*d[5mC]*dA*dT*dG*dG*dT*dG*dA*dA*dT*k[5mC]*kT*eG; antisense) [compound 548300]
% inhibition [2]: 53%

548536 (antisense eT*e[5mC]*kT*d[5mC]*dA*dA*dT*d[5mC]*d[5mC]*d[5mC]*dA*dA*d[5mC]*k[5mC]*k[5mC]*e[5mC]) [compound 548536]
% inhibition [1]: 0%

547963 (antisense eG*eT*kT*d[5mC]*dA*dG*dG*dT*dA*dA*dA*dG*dT*kT*k[5mC]*eT) [compound 547963]
% inhibition [3]: 22%

548602 (eG*eG*kT*dG*dG*dT*dG*dG*dA*dA*dT*dT*dG*kG*kT*eG; antisense) [compound 548602]
% inhibition [1]: 20%

548509 (antisense eT*eG*k[5mC]*dA*dG*dG*dG*d[5mC]*dT*dG*d[5mC]*dG*d[5mC]*kA*kG*eT) [compound 548509]
% inhibition [4]: 41%

548423 (antisense eA*eG*kT*dA*dT*d[5mC]*dA*d[5mC]*dT*dG*dT*d[5mC]*d[5mC]*kT*kA*eT) [compound 548423]
% inhibition [10]: 72%

548538 (antisense eT*eA*kG*dT*dG*dG*d[5mC]*dA*dA*dG*dA*dA*d[5mC]*k[5mC]*kA*e[5mC]) [compound 548538]
% inhibition [1]: 0%

548418 (antisense eT*eA*kT*dA*dT*d[5mC]*dA*d[5mC]*dT*dG*dT*d[5mC]*d[5mC]*kT*kA*eT) [compound 548418]
% inhibition [10]: 39%

548416 (antisense e[5mC]*eT*kA*dT*dA*dA*d[5mC]*dT*d[5mC]*dT*dA*dA*d[5mC]*kA*kG*eT) [compound 548416]
% inhibition [10]: 9%

548167 (eT*eG*k[5mC]*dG*dA*d[5mC]*d[5mC]*dT*d[5mC]*dG*d[5mC]*dA*dT*kT*kG*eT; antisense) [compound 548167]
% inhibition [11]: 36%

548406 (eT*e[5mC]*kT*dA*dG*dA*dG*dG*d[5mC]*d[5mC]*dG*d[5mC]*d[5mC]*kT*kG*e[5mC]; antisense) [compound 548406]
% inhibition [10]: 0%

548266 (antisense eT*eT*kG*dG*d[5mC]*d[5mC]*dA*dA*d[5mC]*dT*d[5mC]*dT*dG*kT*kG*eG) [compound 548266]
% inhibition [2]: 44%

548257 (antisense eA*eG*kT*dG*d[5mC]*dT*d[5mC]*d[5mC]*d[5mC]*d[5mC]*dA*dT*dG*k[5mC]*kA*eT) [compound 548257]
% inhibition [2]: 2%

547759 (antisense eT*eG*kA*dG*dT*d[5mC]*dT*d[5mC]*dT*dT*dG*dT*d[5mC]*kA*k[5mC]*eT) [compound 547759]
% inhibition [12]: 73%

548210 (e[5mC]*eA*kA*d[5mC]*dA*dA*dT*d[5mC]*dT*d[5mC]*dT*dG*dG*kT*k[5mC]*eA; antisense) [compound 548210]
% inhibition [11]: 55%

547842 (antisense eG*eA*kT*dG*dA*d[5mC]*d[5mC]*dA*d[5mC]*dA*dT*dT*dG*k[5mC]*kT*eT) [compound 547842]
% inhibition [12]: 10%

548172 (eT*e[5mC]*kA*dG*dT*dT*dG*d[5mC]*dG*dA*d[5mC]*d[5mC]*dT*k[5mC]*kG*e[5mC]; antisense) [compound 548172]
% inhibition [11]: 0%

547902 (eA*e[5mC]*kT*dG*dT*dA*d[5mC]*dT*dT*dT*dA*dA*dT*kA*kG*eG; antisense) [compound 547902]
% inhibition [8]: 20%
% inhibition [9]: 33%

548326 (eT*e[5mC]*k[5mC]*dT*dG*dT*dG*dA*d[5mC]*dA*dG*dA*dA*k[5mC]*k[5mC]*eA; antisense) [compound 548326]
% inhibition [5]: 27%

548451 (eG*eT*k[5mC]*d[5mC]*dT*dA*dT*dA*dA*d[5mC]*dT*dA*dT*kA*kA*e[5mC]; antisense) [compound 548451]
% inhibition [10]: 0%

547865 (antisense eA*eA*kA*dA*dT*dT*dG*dA*d[5mC]*dT*d[5mC]*d[5mC]*dT*k[5mC]*kT*e[5mC]) [compound 547865]
% inhibition [8]: 3%
% inhibition [9]: 61%

548388 (eA*eA*kG*dA*dG*dG*dA*dT*dG*dT*d[5mC]*dA*dG*kG*k[5mC]*eT; antisense) [compound 548388]
% inhibition [10]: 4%

548123 (antisense eA*eG*kA*d[5mC]*dT*d[5mC]*dT*dG*dG*dA*d[5mC]*dT*dG*k[5mC]*kT*eT) [compound 548123]
% inhibition [6]: 49%

548399 (eA*eG*kT*d[5mC]*d[5mC]*dT*dA*d[5mC]*dA*dA*dT*dT*dA*k[5mC]*k[5mC]*eA; antisense) [compound 548399]
% inhibition [10]: 11%

548504 (antisense eG*e[5mC]*kA*dG*d[5mC]*dG*dA*dG*d[5mC]*dA*dT*dT*d[5mC]*k[5mC]*kA*eA) [compound 548504]
% inhibition [4]: 28%

548145 (eA*eT*kG*d[5mC]*dA*dA*dA*dG*dA*dA*dG*dA*dT*kG*k[5mC]*e[5mC]; antisense) [compound 548145]
% inhibition [6]: 63%

547881 (eA*eT*kT*d[5mC]*dT*dT*d[5mC]*dA*dA*d[5mC]*dA*d[5mC]*dT*kG*k[5mC]*eT; antisense) [compound 547881]
% inhibition [8]: 0%
% inhibition [9]: 50%

547783 (antisense e[5mC]*eA*k[5mC]*dA*dA*dT*dT*dG*d[5mC]*dT*dT*d[5mC]*dT*kT*kG*eG) [compound 547783]
% inhibition [12]: 48%

548368 (eG*eT*kG*dT*dT*d[5mC]*dA*dT*dA*d[5mC]*dG*dG*dA*kA*kG*e[5mC]; antisense) [compound 548368]
% inhibition [5]: 59%

548108 (antisense eG*eA*kG*d[5mC]*dT*dT*dT*dT*d[5mC]*d[5mC]*dA*dT*d[5mC]*kA*k[5mC]*eT) [compound 548108]
% inhibition [6]: 61%

548179 (eG*eG*kA*dG*dA*dT*d[5mC]*dT*d[5mC]*dA*dG*dT*dT*kG*k[5mC]*eG; antisense) [compound 548179]
% inhibition [11]: 52%

548034 (eA*eT*kA*dG*dA*dT*dG*d[5mC]*dG*d[5mC]*d[5mC]*dA*dA*kA*k[5mC]*eA; antisense) [compound 548034]
% inhibition [7]: 31%

548259 (antisense eG*eT*kG*dA*dT*dG*dA*dA*dA*dG*dT*dA*d[5mC]*kA*kG*e[5mC]) [compound 548259]
% inhibition [2]: 45%
